# Where “and” joins values, the source holds several entries; their conditions need not be identical. Equal entries are not always repeated. Non-standard residues stand in square brackets, D forms with d. Residues, ends and D or L forms follow the SMILES beside them. *: point of attachment. boroGlu = O=C(O)CC[C@H](N*)B(O)O; Gly(cPr) = N[C@H](C(=O)O)C1CC1
# What was measured:
# [1] = test system: C+ E. faecalis (FA2-2 (pAM714), ATCC 29212); test: Solution-phase hemolysis assay with C+ E. faecalis and rabbit erythrocytes; type: cell-based, Enterococcus faecalis
# Text: To test this hypothesis, a solution-phase hemolysis assay was developed, and this assay was used to monitor the effect of 9 on the hemolytic activity of several strains of E. faecalis (Fig. 8A). The cytolysin BGC is part of conjugative plasmid pAD1[64]. E. faecalis FA2-2 (-pAD1) lacks pAD1 and E. faecalis FA2-2 (pAM9055) is defective in cylA[27],[64]. Consistent with previous findings, both strains were not hemolytic (Fig. 8A).
# A Treatment of an inoculum (OD600 = 0.35) of washed E. faecalis cells with 100 μM inhibitor 9 ( + 9), in the presence of washed rabbit erythrocytes. The hemolytic activity decreased relative to untreated controls (− 9). In total, four biological replicates (n = 4) for each condition were performed. Error bars represent the standard deviation and are centered at the mean. B Assessment of the ability of inhibitor 9 to block the hemolytic activity of live E. faecalis over a range of inhibitor concentrations under conditions described for (A). […] Errors in the EC50 are the errors calculated during the non-linear concatenate fit. C LCMS analysis of the concentration of CylLS” extracted from overnight cultures of C+ E. faecalis ATCC 29212 treated with 9 or vehicle. CylLS” extract concentrations were determined by comparison to an internal standard of ^15N,^13C-labeled CylLS”. Four biological replicates were performed (n = 4). Errors bars are centered at the mean and represent the standard of deviation. […] Four biological replicates were performed (n = 4). Error bars are centered at the mean and represent the standard of deviation. Statistical significance was calculated using a two sample and two sided t test for (A) and (C) and a one sample one sided t test for (D). **P < 0.01, ***P < 0.001. Source data are provided as a Source Data file.
# Rabbit erythrocytes (Hemostat) were washed with cold, sterile PBS and diluted in BHI to a concentration of 1% v/v. A 3 mL overnight culture of E. faecalis was centrifuged (4000 × g, 10 min) and the pellet was resuspended in 7 mL of BHI and the suspension was centrifuged (4000 × g, 10 min). The pellet was resuspended in BHI to achieve an OD600 of 1.4 and 50 µL of this suspension was added to a well containing 50 µL of inhibitor (400 µM). The inhibitor and the E. faecalis were incubated at room temperature for 10 min before adding 100 µL of 1% v/v rabbit erythrocytes in BHI. The inhibitor-free control well contained the same concentration of bacteria and rabbit erythrocytes. The sterile negative control and sterile positive control contained 100 µL of BHI and 100 µL of 1% v/v rabbit erythrocytes. […] The plate was then placed on ice and centrifuged at 1000 × g for 10 min to pellet all the remaining cellular material. The supernatant was diluted 10-fold in PBS and the absorbance at 415 nm was measured. For each condition, four wells were prepared and analyzed.
# [2] = type: in vitro ADME; conditions: 100 µM, 25% human serum, 3 h, 37 °C
# Description: Similiarly, 9 was diluted to 100 µM in BHI that was inoculated with E. faecalis ATCC 29212 before incubating at 37 °C for 20 h. The overnight culture was flash frozen and lyophilized. The lyophilized samples were extracted with a volume of 90% methanol/10% water that was equal to the volume of the sample prior to lyophilization. The extract was assumed to have a concentration of 100 µM. […]
# Human Serum + 9 Human Serum
# Log(Concentration (µM)) Log(Concentration(µM))
# Supplementary Figure 19. The stability of inhibitor 9 in the pres ence of human serum or C+ E. faecalis. A ) C y l A i nhibition activity of an extract of human s erum treated with 9 (100 μM) for 3 h at 37 ̊C. The resulting solution was used to determine the remaining activity of the inhibitor in a […]
# CylA activity assay. […] This experiment was perform ed on three different samples of inhibitor (n = 3). B) CylA inhibition activity of an extract of E. faecalis that was treated with 9 (100 μM) for 20 h at 37 ̊C (+9 +E. faecalis). The resulting solution was used to determine the remaining activity of the inhibitor in a CylA activity assay. An IC50 equal to 36 ± 3 nM was determin ed. Thes e values are higher than the IC50 for a fresh batch of […]
# (also on this page, place not known: determined. inhibition CylA These IC 50 presence serum This performed A) Non-linear fitting v i/vo IC 50. […]
smiles,measurement,setting,value
CC(=O)NCC(=O)N[C@@H](CC(=O)O)C(=O)N[C@H](C(=O)N[C@@H](CCC(N)=O)C(=O)N[C@@H](C)C(=O)N[C@@H](CCC(=O)O)B(O)O)C1CC1 [Compound 9] (Ac-GD[Gly(cPr)]QA-boroGlu),"hemolysis, absorbance at 415 nm (Figure 8A), replicates","[1]; ATCC29212 +9, 100 μM",0.1606 and 0.1785 and 0.1723 and 0.2311
same,hemolysis relative to untreated cells,"[1]; C+ E. faecalis ATCC 29212, 100 μM, rabbit erythrocytes",significantly reduced
same,hemolytic activity relative to untreated cells,"[1]; E. faecalis FA2-2 (pAM714), 100 μM, rabbit erythrocytes",significantly reduced
same,"OD 415 nm (Figure 8B), trials 1 and 2",[1]; log(concentration of Inhibitor 9 (uM)) 1,0.3132 and 0.3077
same,"OD 415 nm (Figure 8B), trials 1 and 2",[1]; log(concentration of Inhibitor 9 (uM)) 1.39794,0.3207 and 0.274
same,"OD 415 nm (Figure 8B), trials 1 and 2",[1]; log(concentration of Inhibitor 9 (uM)) 1.69897,0.2734 and 0.2373
same,"OD 415 nm (Figure 8B), trials 1 and 2",[1]; log(concentration of Inhibitor 9 (uM)) 1.87506,0.2493 and 0.2138
same,"OD 415 nm (Figure 8B), trials 1 and 2",[1]; log(concentration of Inhibitor 9 (uM)) 2,0.2161 and 0.1917
same,"OD 415 nm (Figure 8B), trials 1 and 2",[1]; log(concentration of Inhibitor 9 (uM)) 2.09691,0.2085 and 0.1864
same,"OD 415 nm (Figure 8B), trials 1 and 2",[1]; log(concentration of Inhibitor 9 (uM)) 2.17609,0.1972 and 0.1808
same,"OD 415 nm (Figure 8B), trials 1 and 2",[1]; log(concentration of Inhibitor 9 (uM)) 2.30103,0.2237 and 0.2008
same,"hemolysis, absorbance at 415 nm (Figure 8A), replicates","[1]; pAM714 +9, 100 μM",0.2309 and 0.2273 and 0.2512 and 0.1929
same,stability in human serum,[2],relatively good stability
